Experimental data as given in US20210206763A1, “Anti-Proliferative Agents” (FEMTOGENIX LIMITED, priority 2015, published 2021).
pIC50: −log10 of the molar value.

Assays:
[1] = system: MS1 DNA fragment; assay: DNA footprinting; assay type: binding; details: overnight incubation of ligand-DNA complexes
Description: (§1) The DNA sequence selectivity profile of selected molecules was investigated using a modification of the previously established DNA footprinting assay ^[32]. Following an overnight incubation of the ligand-DNA complexes, the mixture was mixed with strand separation buffer containing 10 mM EDTA, 10 mM NaOH, 0.1% bromophenol blue, 80% formamide and incubated at 100° C. for 3 min. The mixture was then immediately cooled on ice and run on an 8% denaturing gel. […] 93 (solid black line) also interacts with two further sites. The PBD dimer Talirine (green) illustrates a different binding pattern to 73, 76, 81, 88 and 93. Strong DNA footprints are represented by solid lines and weaker footprints are represented by hatched lines. […] Strong DNA footprints are represented by solid lines, and weaker footprints are represented by hatched lines
(§2) Footprinting reactions were performed as previously described ^[36] using the DNA fragments HexA and HexB, which together contain all 64 symmetrical hexanucleotide sequences^[6], and MS1 that contains all possible […] tetranucleotide sequences ^[38]. The DNA fragments were obtained by cutting the parent plasmids with HindIII and SacI (for HexA and MS1) or EcoRI and PstI (for HexB), and were labelled at the 3′-end of the HindIII or EcoRI sites with [α-^32P]dATP using reverse transcriptase or exo-Klenow fragment. After gel purification, the radiolabelled DNA was dissolved in 10 mM Tris-HCl pH 7.5 containing 0.1 mM EDTA, at a concentration of about 10 c.p.s per μL as determined on a hand held Geiger counter. 1.5 μL of radiolabelled DNA was mixed with 1.5 μL ligand that had been freshly diluted in 10 mM Tris-HCl pH 7.5, containing 10 mM NaCl. The complexes were left to equilibrate for at least 12 hours before digesting with 2 μL DNase I (final concentration about 0.01 units/mL). The reactions were stopped after 1 minute by adding 4 μL of formamide containing 10 mM EDTA and bromophenol blue (0.1% w/v). The samples were then heated at 100° C. for 3 minutes before loading onto 8% denaturing polyacrylamide gels containing 8 M urea. Gels were fixed in 10% acetic acid, transferred to 3MM paper, dried and exposed to a phosphor screen overnight, before analysing with a Typhoon phosphorimager

[2] = system: HexA DNA fragment; assay: DNA footprinting; assay type: binding; details: overnight incubation of ligand-DNA complexes
Description: as §1, §2

[3] = system: MCF-7; assay: In vitro cytotoxicity of free payloads, MTT assay; assay type: cell-based; details: Homo sapiens, MCF7; 72 hour incubation
Description: (§3) The in vitro cytotoxicity of compounds 73, 76, 81, 88 and 93 were evaluated in the JIMT-1, MCF-7, MDA-MB-453 and SK-BR-3 (all breast cancer) cell lines using the standard MIT assay for a 72 hour incubation period (Table 3).
(§4) Tumor cell lines were maintained in RPMI1640 medium supplemented with 10% heat-inactivated fetal bovine serum, 2 mM L-glutamine and 1 mM sodium pyruvate. 1800 cells per well were seeded in a volume of 180 μl in a 96-well flat bottom polystyrene plate. The cells were allowed to adhere overnight at 37° C. in a CO2 incubator. Ligands were initially formulated in DMSO, and stocks stored at −80° C. They were then further formulated at lox concentration in RPMI1640 medium. 20 ul of diluted samples were added into each treatment well. On each plate, blank wells with no cells, and untreated wells containing cells, were included. Plates were then cultured at 37° C. in a CO2 incubator for 72 hrs. Cytotoxicity was evaluated using a tetrazolium salt-based assay, the MIT assay. After 72 hours, the supernatant was removed from each well and 200 μl of a sterile filtered 500 μg/ml MTT solution in water added to each well. The plates were then incubated at 37° C. in a CO2 incubator for 4 hrs. The supernatant was then removed and the formazan crystals formed solubilized by adding 15(411 of DMSO to each well. The plate was then read on a plate reader at 540 nm, and percentage cell survival calculated as follows: ((mean absorbance treated wells at concentration x−mean absorbance blank wells)÷(mean absorbance untreated wells at concentration x−mean absorbance blank wells))×100. Data were plotted as concentration in nM vs. % cell survival in Microsoft Excel, and IC50 values (concentration where cell survival is reduced by a half) were determined from the graph.

[4] = system: MDA-MB-453; assay: In vitro cytotoxicity of free payloads, MTT assay; assay type: cell-based; details: Homo sapiens, 72 hour incubation
Description: as §3, §4

[5] = system: SK-BR-3; assay: In vitro cytotoxicity of free payloads, MTT assay; assay type: cell-based; details: Homo sapiens, 72 hour incubation
Description: as §3, §4

[6] = system: JIMT-1; assay: In vitro cytotoxicity of free payloads, MTT assay; assay type: cell-based; details: Homo sapiens, 72 hour incubation
Description: as §3, §4

Compound | number of preferred binding sites observed in MS1 [1] | number of preferred binding sites observed in HexA [2] | pIC50 [3] | pIC50 [4] | pIC50 [5] | pIC50 [6] | further sequences bound in MS1 not occupied by 73, 76, 81 and 88 [1]
COc1cc2c(cc1OCCCC(=O)Nc1cc(C(=O)Nc3ccc(-c4cc(C(=O)Nc5ccccc5)n(C)c4)cc3)n(C)c1)N=C[C@@H]1CCCCN1C2=O [Compound 73, (S)-4-(4-((2-Methoxy-12-oxo-6a,7,8,9,10,12-hexahydrobenzo[e]pyrido[1,2-a][1,4]diazepin-3-yl)oxy)butanamido)-1-methyl-N-(4-(1-methyl-5-(phenylcarbamoyl)-1H-pyrrol-3-yl)phenyl)-1H-pyrrole-2-carboxamide] | six | five | 9.38 | 9.70 | 9.57 | 9.48 | –
COc1cc2c(cc1OCCCC(=O)Nc1cc(C(=O)Nc3ccc(-c4cc(C(=O)Nc5ccc(C)cc5)n(C)c4)cc3)n(C)c1)N=C[C@@H]1CCCCN1C2=O [Compound 76, (S)-4-(4-((2-Methoxy-12-oxo-6a,7,8,9,10,12-hexahydrobenzo[e]pyrido[1,2-a][1,4]diazepin-3-yl)oxy)butanamido)-1-methyl-N-(4-(1-methyl-5-(p-tolylcarbamoyl)-1H-pyrrol-3-yl)phenyl)-1H-pyrrole-2-carboxamide] | six | five | 9.28 | 9.72 | 9.54 | 9.37 | –
COC(=O)c1ccc(NC(=O)c2cc(-c3ccc(NC(=O)c4cc(NC(=O)CCCOc5cc6c(cc5OC)C(=O)N5CCCC[C@H]5C=N6)cn4C)cc3)cn2C)cc1 [Compound 81, Methyl (S)-4-(4-(4-(4-(4-((2-methoxy-12-oxo-6a,7,8,9,10,12-hexahydrobenzo[e]pyrido[1,2-a][1,4]diazepin-3-yl)oxy)butanamido)-1-methyl-1H-pyrrole-2-carboxamido)phenyl)-1-methyl-1H-pyrrole-2-carboxamido)benzoate] | six | five | 8.85 | 9.38 | 9.48 | 9.30 | –
COc1cc2c(cc1OCCCC(=O)Nc1cc(C(=O)Nc3ccc(-c4cn(C)c(C(=O)Nc5ccccc5)n4)cc3)n(C)c1)N=C[C@@H]1CCCCN1C2=O [Compound 88, (S)-4-(4-(4-(4-((2-Methoxy-12-oxo-6a,7,8,9,10,12-hexahydrobenzo[e]pyrido[1,2-a][1,4]diazepin-3-yl)oxy)butanamido)-1-methyl-1H-pyrrole-2-carboxamido)phenyl)-1-methyl-N-phenyl-1H-imidazole-2-carboxamide] | six | five | 9.22 | 9.89 | 10.22 | 9.43 | –
COc1cc2c(cc1OCCCC(=O)Nc1cn(C)c(C(=O)Nc3ccc(-c4cc(C(=O)Nc5ccccc5)n(C)c4)cc3)n1)N=C[C@@H]1CCCCN1C2=O [Compound 93, (S)-4-(4-((2-Methoxy-12-oxo-6a,7,8,9,10,12-hexahydrobenzo[e]pyrido[1,2-a][1,4]diazepin-3-yl)oxy)butanamido)-1-methyl-N-(4-(1-methyl-5-(phenylcarbamoyl)-1H-pyrrol-3-yl)phenyl)-1H-imidazole-2-carboxamide] | – | – | 8.70 | 9.74 | 10.05 | 9.43 | two
